Experimental findings from publication PMC6532548, “Embelin, a Potent Molecule for Alzheimer's Disease: A Proof of Concept From Blood-Brain Barrier Permeability, Acetylcholinesterase Inhibition and Molecular Docking Studies” (Frontiers in Neuroscience, 2019) are described below.

The experiment addresses acetylcholinesterase (AChE) (Electrophorus electricus, UniProt O42275). As to the kind of experiment: Ellman's assay with electric eel AChE, acetylthiocholine iodide substrate. Format: biochemical. On the technique in general: DTNB colorimetry detects thiols as they appear.

Each structure is given as a SMILES string.

Sequence of acetylcholinesterase (AChE) (O42275 24-633): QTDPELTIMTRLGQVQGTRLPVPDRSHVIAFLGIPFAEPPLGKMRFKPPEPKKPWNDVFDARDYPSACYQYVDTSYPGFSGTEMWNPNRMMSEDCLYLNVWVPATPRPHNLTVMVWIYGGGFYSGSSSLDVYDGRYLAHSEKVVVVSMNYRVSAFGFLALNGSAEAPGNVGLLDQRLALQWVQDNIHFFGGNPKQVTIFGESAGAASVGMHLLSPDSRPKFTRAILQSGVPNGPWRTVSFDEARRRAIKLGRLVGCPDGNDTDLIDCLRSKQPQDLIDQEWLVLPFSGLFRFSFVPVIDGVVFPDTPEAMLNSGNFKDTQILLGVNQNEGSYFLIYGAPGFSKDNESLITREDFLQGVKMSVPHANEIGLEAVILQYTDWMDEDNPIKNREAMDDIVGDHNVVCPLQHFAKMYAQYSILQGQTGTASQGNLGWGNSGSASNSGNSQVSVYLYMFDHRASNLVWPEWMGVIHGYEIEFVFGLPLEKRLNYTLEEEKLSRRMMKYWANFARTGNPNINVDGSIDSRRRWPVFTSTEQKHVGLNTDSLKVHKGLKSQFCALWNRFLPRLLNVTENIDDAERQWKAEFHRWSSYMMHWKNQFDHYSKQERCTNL

On to `CCCCCCCCCCCC1=C(O)C(=O)C=C(O)C1=O` [embelin, 2,5-dihydroxy-3-undecyl-1,4-benzoquinone], for which inhibition was half-maximal at 169 µM (IC50).
